Measured values taken from patent US20250197372A1 (priority 2020, published 2025).

Columns and labels:
[1] = biological target: rat maltase (partially purified alpha-glucosidase from intestinal rat powder); test: Intestinal alpha-glucosidase assay, maltose substrate (Glucose GO Kit); assay type: biochemical
How it was run: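 Glucose release is the read-out: compounds at multiple dilutions are first held with partially purified rat intestinal alpha-glucosidase for 60 min at 37 °C, after which maltose or sucrose substrate reacts for 30 min at 37 °C before a 5 min 90 °C stop. IC50 comes from a four-parameter logistic fit.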

[2] = biological target: T1, recombinant alpha-glucosidase I (human full-length glucosidase I, Glu 1) (Homo sapiens, UniProt Q13724); test: Alpha-glucosidase I assay (Amplex Red glucose detection, synthetic trisaccharide substrate); assay type: biochemical; conditions: Glucosidase 1; read-out: Glu 1 IC50
T1 construct: 6-His (C); made in house; host or cells: HEK-293T cells transduced with BacMam virus (virus raised in Sf9)
T1 sequence (Q13724 1-837): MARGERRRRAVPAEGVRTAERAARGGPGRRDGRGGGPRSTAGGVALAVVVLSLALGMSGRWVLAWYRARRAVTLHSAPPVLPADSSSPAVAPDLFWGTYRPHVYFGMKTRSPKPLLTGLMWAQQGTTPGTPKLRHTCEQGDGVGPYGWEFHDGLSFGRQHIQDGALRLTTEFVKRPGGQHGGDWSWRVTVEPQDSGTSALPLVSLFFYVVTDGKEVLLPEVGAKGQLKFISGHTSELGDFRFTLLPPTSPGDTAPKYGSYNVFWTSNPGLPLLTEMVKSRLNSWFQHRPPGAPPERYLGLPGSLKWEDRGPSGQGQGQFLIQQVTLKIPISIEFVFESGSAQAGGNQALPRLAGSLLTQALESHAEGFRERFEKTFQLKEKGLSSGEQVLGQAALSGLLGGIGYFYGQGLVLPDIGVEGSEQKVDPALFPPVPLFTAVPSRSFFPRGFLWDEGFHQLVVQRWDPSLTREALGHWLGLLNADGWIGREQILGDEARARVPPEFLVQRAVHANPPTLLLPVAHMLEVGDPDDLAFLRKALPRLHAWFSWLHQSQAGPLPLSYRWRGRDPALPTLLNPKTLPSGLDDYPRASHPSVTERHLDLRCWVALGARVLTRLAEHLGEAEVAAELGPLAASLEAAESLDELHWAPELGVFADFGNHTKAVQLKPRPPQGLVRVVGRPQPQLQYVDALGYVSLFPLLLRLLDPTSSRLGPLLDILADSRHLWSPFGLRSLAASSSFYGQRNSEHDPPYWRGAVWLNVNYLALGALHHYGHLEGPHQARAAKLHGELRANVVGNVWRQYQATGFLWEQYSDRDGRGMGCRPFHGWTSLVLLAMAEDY
How it was run: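 Human full-length glucosidase I, His-tagged, […] and Ni-purified. Enzyme preincubated with compound dilutions 60 min at 37° C, then synthetic trisaccharide substrate 90 min at 37° C; stopped with 1.5M Tris pH 8.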

Row | Compound | IC50 [1] [nM] | IC50 [2] [nM]
1 | OC[C@@H]1[C@@H](O)[C@H](O)[C@@H](O)CN1CCCCCCNc1cc(C2CC2)cc(N2CCOCC2)c1 [Compound 1006, (2R,3R,4R,5S)-1-(6-{[3-cyclopropyl-5-(morpholin-4-yl)phenyl]amino}hexyl)-2-(hydroxymethyl)piperidine-3,4,5-triol] | 10 | 220
2 | O=[N+]([O-])c1cc(-c2ncc[nH]2)ccc1NCCc1ccc(CCN2C[C@H](O)[C@@H](O)[C@H](O)[C@H]2CO)cc1 [Compound 1078, (2R,3R,4R,5S)-2-(hydroxymethyl)-1-{2-[4-(2-{[4-(1H-imidazol-2-yl)-2-nitrophenyl]amino}ethyl)phenyl]ethyl}piperidine-3,4,5-triol] | 28 | 200
3 | Cc1cc(NCc2ccc(CN3C[C@H](O)[C@@H](O)[C@H](O)[C@H]3CO)cc2)cc(-c2ccc[nH]2)c1 [Compound 1051, (2R,3R,4R,5S)-2-(hydroxymethyl)-1-{[4-({[3-methyl-5-(1H-pyrrol-2-yl)phenyl]amino}methyl)phenyl]methyl}piperidine-3,4,5-triol] | < 1 | 48
4 | O=[N+]([O-])c1cc(-c2cccnn2)ccc1NCc1cccc(CN2C[C@H](O)[C@@H](O)[C@H](O)[C@H]2CO)c1 [Compound 1089, (2R,3R,4R,5S)-2-(hydroxymethyl)-1-{[3-({[2-nitro-4-(pyridazin-3-yl)phenyl]amino}methyl)phenyl]methyl}piperidine-3,4,5-triol] | 36 | 26
5 | N#Cc1cc(NCc2ccc(CN3C[C@H](O)[C@@H](O)[C@H](O)[C@H]3CO)cc2)cc(C2=COCCO2)c1 [Compound 1062, 3-(5,6-dihydro-1,4-dioxin-2-yl)-5-{[(4-{[(2R,3R,4R,5S)-3,4,5-trihydroxy-2-(hydroxymethyl)piperidin-1-yl]methyl}phenyl)-methyl]amino}benzonitrile] | < 1 | 1
6 | N#Cc1cc(NCc2ccc(CN3C[C@H](O)[C@@H](O)[C@H](O)[C@H]3CO)cc2)cc(-c2ccc[nH]2)c1 [Compound 1063, 3-(1H-pyrrol-2-yl)-5-{[(4-{[(2R,3R,4R,5S)-3,4,5-trihydroxy-2-(hydroxymethyl)piperidin-1-yl]methyl}phenyl)methyl]amino}-benzonitrile] | < 1 | 1
7 | N#Cc1cc(NCc2cccc(CN3C[C@H](O)[C@@H](O)[C@H](O)[C@H]3CO)c2)cc(-c2ccc[nH]2)c1 [Compound 1045, 3-(1H-pyrrol-2-yl)-5-{[(3-{[(2R,3R,4R,5S)-3,4,5-trihydroxy-2-(hydroxymethyl)piperidin-1-yl]methyl}phenyl)methyl]amino}benzonitrile] | < 1 | < 1
8 | COc1cc(Br)cc(NCCn2cc(CCN3C[C@H](O)[C@@H](O)[C@H](O)[C@H]3CO)c3ccccc32)c1 [Compound 1075, (2R,3R,4R,5S)-1-[2-(1-{2-[(3-bromo-5-methoxyphenyl)amino]ethyl}-1H-indol-3-yl)ethyl]-2-(hydroxymethyl)piperidine-3,4,5-triol] | 238 | 1920
9 | Cc1cc(CN2CCOCC2)cc(NCc2ccc(CN3C[C@H](O)[C@@H](O)[C@H](O)[C@H]3CO)cc2)c1 [Compound 1005, (2R,3R,4R,5S)-2-(hydroxymethyl)-1-({4-[({3-methyl-5-[(morpholin-4-yl)methyl]phenyl}amino)methyl]phenyl}methyl)piperidine-3,4,5-triol] | 58 | 404
10 | [N-]=[N+]=Nc1ccc(NCCC23CC(CCN4C[C@H](O)[C@@H](O)[C@H](O)[C@H]4CO)(C2)C3)c([N+](=O)[O-])c1 [Compound 1103, (2R,3R,4R,5S)-1-[2-(3-{2-[(4-azido-2-nitrophenyl)amino]ethyl}bicyclo[1.1.1]pentan-1-yl)ethyl]-2-(hydroxymethyl)piperidine-3,4,5-triol] | 279 | 267
11 | COC(=O)c1cc(Cl)cc(NCCc2ccc(CCN3C[C@H](O)[C@@H](O)[C@H](O)[C@H]3CO)cc2)c1 [Compound 1116, methyl 3-chloro-5-{[2-(4-{2-[(2R,3R,4R,5S)-3,4,5-trihydroxy-2-(hydroxymethyl)piperidin-1-yl]ethyl}phenyl)ethyl]amino}benzoate] | 162 | 1360
12 | O=[N+]([O-])c1cc(-c2ncccn2)ccc1NCCc1ccc(CCN2C[C@H](O)[C@@H](O)[C@H](O)[C@H]2CO)cc1 [Compound 1111, (2R,3R,4R,5S)-2-(hydroxymethyl)-1-{2-[4-(2-{[2-nitro-4-(pyrimidin-2-yl)phenyl]amino}ethyl)phenyl]ethyl}piperidine-3,4,5-triol] | < 1 | 68
13 | O=[N+]([O-])c1cc(-c2ccc[nH]2)ccc1NCc1ccc(CN2C[C@H](O)[C@@H](O)[C@H](O)[C@H]2CO)cc1 [Compound 1100, (2R,3R,4R,5S)-2-(hydroxymethyl)-1-{[4-({[2-nitro-4-(1H-pyrrol-2-yl)phenyl]amino}methyl)phenyl]methyl}piperidine-3,4,5-triol] | < 1 | < 1
14 | O=C(O)c1cc(NCCCCCCN2C[C@H](O)[C@@H](O)[C@H](O)[C@H]2CO)cc(-c2ncccn2)c1 [Compound 1118, 3-(pyrimidin-2-yl)-5-({6-[(2R,3R,4R,5S)-3,4,5-trihydroxy-2-(hydroxymethyl)piperidin-1-yl]hexyl}amino) benzoic acid] | 4 | 10
15 | OC[C@@H]1[C@@H](O)[C@H](O)[C@@H](O)CN1Cc1ccc(CNc2ccc(CN3CCCO3)cc2)cc1 [Compound 1092, (2R,3R,4R,5S)-2-(hydroxymethyl)-1-({4-[({4-[(1,2-oxazolidin-2-yl)methyl]phenyl}amino)methyl]phenyl}methyl)piperidine-3,4,5-triol] | 38 | 59
16 | OC[C@@H]1[C@@H](O)[C@H](O)[C@@H](O)CN1Cc1cccc(CNc2ccc(-c3ncccn3)cc2)c1 [Compound 1084, (2R,3R,4R,5S)-2-(hydroxymethyl)-1-{[3-({[4-(pyrimidin-2-yl)phenyl]amino}methyl)phenyl]methyl}piperidine-3,4,5-triol] | 95 | 79
17 | O=S(=O)(Nc1cc(NCCCCCCN2C[C@H](O)[C@@H](O)[C@H](O)[C@H]2CO)cc(-c2ncccn2)c1)C1CC1 [Compound 1114, N-[3-(pyrimidin-2-yl)-5-({6-[(2R,3R,4R,5S)-3,4,5-trihydroxy-2-(hydroxymethyl)piperidin-1-yl]hexyl}amino)phenyl]cyclopropanesulfonamide] | 5 | 108
18 | O=[N+]([O-])c1cc(N2CCOCC2)ccc1NCc1ccc(CN2C[C@@H](O)[C@H](O)[C@@H](O)[C@@H]2CO)cc1 (stereo in doubt) [Compound 1069, (2S,3S,4S,5R)-2-(hydroxymethyl)-1-{[4-({[4-(morpholin-4-yl)-2-nitrophenyl]amino}methyl)phenyl]methyl}piperidine-3,4,5-triol] | < 1 | 22
19 | N#Cc1cc(NCc2ccc(CN3C[C@H](O)[C@@H](O)[C@H](O)[C@H]3CO)cc2)cc(-c2ncccn2)c1 [Compound 1065, 3-(pyrimidin-2-yl)-5-{[(4-{[(2R,3R,4R,5S)-3,4,5-trihydroxy-2-(hydroxymethyl)piperidin-1-yl]methyl}phenyl)methyl]amino}-benzonitrile] | 3 | 9
20 | OC[C@@H]1[C@@H](O)[C@H](O)[C@@H](O)CN1Cc1cccc(CNc2ccc(N3CCOCC3)cc2)c1 [Compound 1081, (2R,3R,4R,5S)-2-(hydroxymethyl)-1-{[3-({[4-(morpholin-4-yl)phenyl]amino}methyl)phenyl]methyl}piperidine-3,4,5-triol] | 110 | 169
21 | O=[N+]([O-])c1cc(-c2ncccn2)ccc1NCc1ccc(CN2C[C@H](O)[C@@H](O)[C@H](O)[C@H]2CO)cc1 [Compound 1102, (2R,3R,4R,5S)-2-(hydroxymethyl)-1-{[4-({[2-nitro-4-(pyrimidin-2-yl)phenyl]amino}methyl)phenyl]methyl}piperidine-3,4,5-triol] | < 1 | < 1
22 | [N-]=[N+]=Nc1ccc(NCc2ccc(Cc3ccc(CN4C[C@H](O)[C@@H](O)[C@H](O)[C@H]4CO)cc3)cc2)c([N+](=O)[O-])c1 [Compound 1105, (2R,3R,4R,5S)-1-({4-[(4-{[(4-azido-2-nitrophenyl)amino]methyl}phenyl)methyl]phenyl}methyl)-2-(hydroxymethyl)piperidine-3,4,5-triol] | 6 | 16
